The results in this text go back to ChEMBL document CHEMBL5257026, “Progress and prospects on DENV protease inhibitors” (Eur J Med Chem, 2016).

Data set [1] is described as follows: Inhibition of DENV3 recombinant NS2B-NS3 protease expressed in Escherichia coli using Abz-RRRRSAG-nY-NH2 as substrate preincubated for 20 mins at 37 degC followed by substrate addition measured after 60 mins by fluorescence spectrophotometric analysis. More on the design: species or system dengue virus type 3.
A short description of data set [2]: Inhibition of DENV1 recombinant NS2B-NS3 protease expressed in Escherichia coli using Abz-RRRRSAG-nY-NH2 as substrate preincubated for 20 mins at 37 degC followed by substrate addition measured after 60 mins by fluorescence spectrophotometric analysis. More on the design: species or system dengue virus type 1.
Data set [3] in a line: Inhibition of DENV4 recombinant NS2B-NS3 protease expressed in Escherichia coli using Abz-RRRRSAG-nY-NH2 as substrate preincubated for 20 mins at 37 degC followed by substrate addition measured after 60 mins by fluorescence spectrophotometric analysis. More on the design: species or system dengue virus type 4.
Data set [4] is described as follows: Inhibition of DENV2 recombinant NS2B-NS3 protease expressed in Escherichia coli using Abz-RRRRSAG-nY-NH2 as substrate preincubated for 20 mins at 37 degC followed by substrate addition measured after 60 mins by fluorescence spectrophotometric analysis. More on the design: species or system dengue virus type 2.
A short description of data set [5]: Inhibition of DENV2 NS2B-NS3 protease using Boc-Gly-Lys-Arg-AMC as substrate incubated for 30 mins by fluorescence assay. More on the design: species or system dengue virus type 2.
The nature of data set [6]: Selectivity index, ratio of CC50 for cytotoxicity against African green monkey Vero cells to EC50 for antiviral activity against DENV4 P11-08 infected in African green monkey Vero cells. The data set is classed as toxicity, cell-based. To be noted: read-out: Ratio CC50/EC50.
Data set [7] is described as follows: Selectivity index, ratio of CC50 for cytotoxicity against African green monkey Vero cells to EC50 for antiviral activity against DENV3 P12-08 infected in African green monkey Vero cells. Type of data set: toxicity, cell-based. To be noted: read-out: Ratio CC50/EC50.
A short description of data set [8]: Selectivity index, ratio of CC50 for cytotoxicity against African green monkey Vero cells to EC50 for antiviral activity against DENV2 New Guinea C infected in African green monkey Vero cells. The data set is classed as toxicity, cell-based. The conditions noted are these: read-out: Ratio CC50/EC50.
A short description of data set [9]: Selectivity index, ratio of CC50 for cytotoxicity against African green monkey Vero cells to EC50 for antiviral activity against DENV1 P03-08 infected in African green monkey Vero cells. The data set is classed as toxicity, cell-based. To be noted: read-out: Ratio CC50/EC50.
A short description of data set [10]: Inhibition of DENV1 NS2B-NS3 protease expressed in Escherichia coli BL21 (DE3) using Bz-Nle-Lys-Arg-Arg-AMC as substrate preincubated for 30 mins followed by substrate addition by fluorescence plate reader analysis. More on the design: species or system dengue virus type 1.
Data set [11] is described as follows: Inhibition of DENV4 NS2B-NS3 protease expressed in Escherichia coli BL21 (DE3) using Bz-Nle-Lys-Arg-Arg-AMC as substrate preincubated for 30 mins followed by substrate addition by fluorescence plate reader analysis. More on the design: species or system dengue virus type 4.
A short description of data set [12]: Inhibition of DENV2 NS2B-NS3 protease expressed in Escherichia coli BL21 (DE3) using Bz-Nle-Lys-Arg-Arg-AMC as substrate preincubated for 30 mins followed by substrate addition by fluorescence plate reader analysis. More on the design: species or system dengue virus type 2.
Data set [13] can be described thus: Inhibition of DENV3 NS2B-NS3 protease expressed in Escherichia coli BL21 (DE3) using Bz-Nle-Lys-Arg-Arg-AMC as substrate preincubated for 30 mins followed by substrate addition by fluorescence plate reader analysis. More on the design: species or system dengue virus type 3.
For data set [14], the system named is dengue virus type 2. In words: Antiviral activity against DENV2 infected in Golden hamster BHK-21 cells assessed as reduction in viral titer incubated for 72 hrs by plaque-forming assay. The data set is classed as functional, organism-based. The conditions noted are these: BHK-21, 72 h.
Data set [15] in a line: Inhibition of DENV2 N-terminally hexa-His tagged NS2B (49 to 92 residues) -NS3 (1 to 184 residues) protease using Ac-TTSTRR-pNA as substrate preincubated for 10 mins followed by substrate addition and measured after 120 mins by HTS assay. More on the design: species or system dengue virus type 2.
Data set [16] in a line: Inhibition of DENV2 NS2B-NS3 protease using Bz-Nle-Lys-Arg-Arg-AMC as substrate preincubated for 15 mins followed by substrate addition by fluorescence assay. More on the design: species or system dengue virus type 2.
Data set [17] is described as follows: Inhibition of DENV4 N-terminally hexa-His tagged NS2B (48 to 95 residues) -NS3 (1 to 184 residues) protease expressed in Escherichia coli XL1 Blue using QXL570-Phe-Ala-Ser-Gly-Lys-Arg-Ser-Gln-Ile-Gly-Leu-Lys(5-TAMRA)-NH2 as substrate and measured for 15 mins by FRET assay. More on the design: species or system dengue virus type 4.
Data set [18] in a line: Inhibition of DENV3 N-terminally hexa-His tagged NS2B (48 to 95 residues) -NS3 (1 to 184 residues) protease expressed in Escherichia coli XL1 Blue using QXL570-Phe-Ala-Ser-Gly-Lys-Arg-Ser-Gln-Ile-Gly-Leu-Lys(5-TAMRA)-NH2 as substrate and measured for 15 mins by FRET assay. More on the design: species or system dengue virus type 3.
The nature of data set [19]: Inhibition of DENV2 recombinant NS2B-NS3 protease expressed in Escherichia coli JM109 assessed as inhibition constant using acetyl-TTSTRR-para-nitroaniline as substrate preincubated for 10 mins followed by substrate addition measured after 120 mins by spectrophotometric analysis. More on the design: species or system dengue virus type 2.
Data set [20] can be described thus: Inhibition of DENV2 N-terminally hexa-His tagged NS2B (48 to 95 residues) -NS3 (1 to 184 residues) protease expressed in Escherichia coli XL1 Blue using QXL570-Phe-Ala-Ser-Gly-Lys-Arg-Ser-Gln-Ile-Gly-Leu-Lys(5-TAMRA)-NH2 as substrate and measured for 15 mins by FRET assay. More on the design: species or system dengue virus type 2.
A short description of data set [21]: Inhibition of DENV1 N-terminally hexa-His tagged NS2B (48 to 95 residues) -NS3 (1 to 184 residues) protease expressed in Escherichia coli XL1 Blue using QXL570-Phe-Ala-Ser-Gly-Lys-Arg-Ser-Gln-Ile-Gly-Leu-Lys(5-TAMRA)-NH2 as substrate and measured for 15 mins by FRET assay. More on the design: species or system dengue virus type 1.
Data set [22] can be described thus: Inhibition of DENV2 TSV01 NS2B-NS3 protease using BOC-GRR-AMC as substrate incubated for 30 mins by spectrofluorometeric assay. More on the design: species or system dengue virus type 2.

pEC50, pIC50, pKi: −log10 of the molar value. Residues, ends and D or L forms follow the SMILES beside them.

For the molecule `NC(=O)[C@H](Cc1c[nH]c2ccccc12)NC(=O)[C@H](CS)NC(=O)[C@H](Cc1ccc(O)cc1)NC(=O)[C@@H](N)Cc1c[nH]c2ccccc12` (H-WYCW-NH2), the pKi was 4.61 in data set [1], 5.38 in [2], 4.95 in [3] and 5.32 in [4].
Take `Cc1cc(=O)cc2oc3cc(N)c(-c4c(C)cc(O)cc4O)c(C)c3nc1-2`: in data set [5], the pKi was 4.46.
On to `Cc1ccc(S(=O)(=O)Nc2cc(SCC(=O)O)c(O)c3ccccc23)cc1[N+](=O)[O-]`, for which the selectivity ratio in data set [6] was 90.8; in [7], 27.7; in data set [8], 68.6; in data set [9], 69.3.
Turning to `O=C(Nc1nc2cc(O)c(O)cc2s1)c1ccccc1Oc1ccc2cc(O)ccc2c1`, the pIC50 in [10] was 5.70; in data set [11], 5.70; in [12], 5.64; in data set [13], 5.80.
On to `c1ccc(-c2ccc(Nc3nnc(Nc4ccc(C5=NCCN5)cc4)c4ccccc34)cc2)cc1`, for which the negative logarithm of the EC50 (pEC50) in data set [14] was 6.64. Also, the pIC50 in data set [15] is 4.65.
The molecule `CCc1ccc(NS(=O)(=O)c2ccc(N3C(=O)c4ccccc4C3=O)cc2)cc1` showed a pIC50 in data set [16] of 4.32.
In the case of `N=C(N)Nc1ccc(O[C@H]2C[C@@H](Oc3ccc(NC(=N)N)cc3NC(=N)N)[C@H](NC(=N)N)C[C@@H]2NC(=N)N)c(NC(=N)N)c1`, the pIC50 in [17] was 4.96; in [18], 5.30; in data set [20] it was 5.30; in [21], 5.52. The pKi in data set [19] is 4.81.
On to `O=C1c2c(O)ccc([N+](=O)[O-])c2C(=O)c2c([N+](=O)[O-])ccc(O)c21`, for which the pKi in [5] is 5.38; in [22] it was 3.36.

As usually defined, the pKi is the negative decadic logarithm of the Ki, by convention in mol/L. A word on the pIC50: it is the negative decadic logarithm of the IC50, by convention in mol/L. The pEC50 is −log10 of the EC50, conventionally taken in molar units.
